Source: US11299509B2, “Trigger-activatable sugar conjugates for cancer-selective labeling and targeting” (The Board of Trustees of the University of Illinois, priority 2017, dated 2022)

Key:
[1] = tested on: HepG2 (liver cancer) cells; assay: Metabolic azido-sugar cell labeling, DBCO-Cy5 detection by flow cytometry; type: cell-based; settings: for Cell labeling (Cy5 fluorescence on the cell surface): 50 μM sugar, 72 h, DBCO-Cy5 25 μM, no UV
Method: (§1) These cells were incubated with Ac4GalNAz (AAG), Ac3GalNAzEt (AAG-Et), and PBS respectively for three days.
(§2) It is known that galactosamine can be preferentially taken up by hepatocytes (a type of liver cells) due to the presence of cell receptors such as asialoglycoprotein receptor (ASGPR). Tetraacetyl-N-azidoacetylgalactosamine (AAG) is relative hydrophobic and can passively diffuse into cells through hydrophobic interactions with the lipid cell membrane while N-azidoacetylgalactosamine (AG) is too hydrophilic to penetrate the lipid barrier by passive diffusion. Therefore, AG can only be taken up by cells through receptor-mediated endocytosis.
(§3) Cells were seeded onto coverslips in a 6-well plate at a cell density of 40 k/well. AAG or AAG derivatives were added and incubated with cells for 72 h. […] The opti-MEM was then removed and cells were washed with PBS three times. Cells were lifted by incubating with trypsin solution (100 μL) at 37° C. for 5 min and transferred to test tubes with addition of 4% PFA solution (0.4 mL). Ten thousand cells per sample were analyzed by flow cytometry and data analysis was performed on the FCS Express software.
(§4) AAG-Nb with a final concentration of 50 μM was added. UV light (10 mW/m^2) was applied for 15 min at the start of incubation, and the cells were further incubated for 72 h. Cells without UV irradiation were continuously incubated for 72 h. Cell samples for flow cytometry were then prepared following the above-mentioned procedures.

[2] = tested on: Jurkat (lymphoma) cells; assay: as above; type: cell-based; settings: 50 μM sugar, 72 h, DBCO-Cy5 25 μM, no UV
Method: as §1, §2, §3, §4

[3] = tested on: MDA-MB-231 (triple negative breast cancer) cells; assay: as above; type: cell-based; settings: 50 μM sugar, 72 h, DBCO-Cy5 25 μM, no UV
Method: as §1, §2, §3, §4

[4] = tested on: HepG2 liver cancer cells; assay: SDS-PAGE analysis of cells treated with azido-sugars; type: cell-based; settings: 72 h, DBCO-Cy5 25 μM
Method: HepG2 liver cancer cells were seeded onto 6-well plate at a cell density of 40 k/well. Different azido-sugars at different concentrations were added and incubated with cells for 72 h. After removal of medium and multiple washing steps, DBCO-Cy5 (25 μM) in opti-MEM was added and incubated with cells at 37° C. for 1 h. The opti-MEM was then removed and cells were washed with PBS three times. The cells were homogenized in 150 μL of lysis buffer (RIPA) containing protease inhibitor. The lysate was incubated at 4° C. for 30 min, followed by centrifugation at 5000 rcf for 5 min to remove insoluble debris. The total concentration of soluble protein in each sample was determined by bicinchoninic acid (BCA) assay and adjusted to the same concentration. 4× loading buffer was added to each sample and 15 μL samples containing 20 μg protein were loaded onto 10% SDS-PAGE gel after heating at 95° C. The gel was run for 60 min under 150 V. Cy-5 fluorescence was imaged by Imagequant LAS 4010 Luminescent image analyzer and the gel was further stained by coomassie blue

[5] = tested on: HepG2 liver cancer cells; assay: MTT cell viability assay of azido-sugars; type: cell-based; settings: up to 200 μM, 72 h
Method: HepG2 liver cancer cells were seeded onto coverslips in a 6-well plate at a cell density of 40 k/well. Different azido-sugars (AG, AAG, and AAM) at different concentrations (50 μM-200 μM) were added, and the cells were incubated at 37° C. for 72 h. The medium was removed. Then 20 μL 3-(4,5-dimethyl-2-thiazolyl)-2,5-diphenyl-2H-tetrazolium bromide (MTT) (5 mg/mL in PBS) was added and cultured at 37° C. for 4 h. MTT is a substrate that provides a colorimetric signal in response to viable mitochondria. Following solubilization by 100 μl DMSO, absorbance at 570 nm was measured using a plate reader.

[6] = tested on: HepG2 liver cancer cells; assay: Confocal imaging of azido-sugar labeled cells; type: cell-based; settings: DBCO-Cy5 stain
Method: Cells were seeded onto coverslips in a 6-well plate at a cell density of 40 k/well. Ac4GalNAz (AAG) or AAG derivatives were added with a final concentration of 50 μM and the cells were incubated at 37° C. for 72 h. The medium was removed and washed with PBS for three times. DBCO-Cy5 (25 μM) in Opti-MEM was then added and the cells were incubated for another 1 h. Then the medium was removed, and the cells were washed with PBS three times. 4% paraformaldehyde (PFA) solution was added to fix the cells for 10 min, followed by staining of cell nucleus with Hoechst (1 μg/mL) and staining of cell membrane with cell mask orange (5 ug/mL) for 10 min. The coverslips were mounted on microscope slides with the addition of ProLong Gold antifade reagent, and the prepared sample was stored in dark for imaging.

[7] = Maximum tolerable dose (MTD) after i.v. injection; settings: CD-1, mouse, in vivo
Method: (§5) The maximum tolerable dose (MTD) of the two conjugates were also evaluated in CD-1 mice (FIG. 9). […] The sulfo-DBCO-TEG-VC-DOX was injected using PBS with only one time administration.
(§6) The maximum tolerable dose (MTD) of the two conjugates were also evaluated in mice (FIG. 15).
(§7) A model DBCO-paclitaxel conjugate, PTX-TEG-DBCO was prepared through well-established reactions.

[8] = tested on: CD-1 mice; assay: Maximum tolerable dose (MTD) after i.v. injection; settings: for Maximum tolerable dose (MTD): single i.v. injection, <20% body weight loss
Method: as §5, §6, §7

[9] = physchem
Method: Two DBCO-doxorubicin conjugates were synthesized with a cathepsin-B responsive peptide linker (VC). A tetraethyleneglycol unit was incorporated to improve the solubility of the conjugates (FIG. 7). A sulfonic acid-containing conjugate, sulfo-DBCO-TEG-VC-DOX was also prepared to further improve the solubility of the conjugate. […] The solubility of the two conjugates were first tested.
DBCO-DM1 conjugates (FIG. 11) were then synthesized through well-established chemistries. A polyethylene glycol 5000 was used in the design to serve the following purpose: 1. […] To increase the hydrophilicity of the drug conjugate such that its passive uptake in non-azide labeled cells can be reduced; 3. To increase the blood circulation half-time (pharmacokinetics) of the molecule in vivo.

[10] = tested on: MDA-MB-231 breast cancer cell; assay: MTT assay to evaluate in vitro cytotoxicity; type: cell-based; settings: 72 hours
Method: Standard MTT protocol was followed to evaluate the cytotoxicity of DBCO-drug conjugate. Briefly, MDA-MB-231 cells were seeded in 96-well plate at 3000 cells/well in 100 μL DMEM medium and were allowed to attach overnight. 10 μL DBCO-drug conjugate solution was added into the well to the designated final concentration and incubated at 37° C. for 72 hours. PBS was taken as 100% control. 20 μL 5 mg/mL MTT solution was added to the medium and incubated at 37° C. for 3 hours.

[11] = tested on: a variety of breast cancer cell lines; settings: down to; cited from earlier work

## CC(=O)OC[C@H]1OC(OC(C)=O)[C@H](NC(=O)CN=[N+]=[N-])[C@@H](OC(C)=O)[C@H]1OC(C)=O (stereo partly shown) [AAG, Tetraacetyl-N-azidoacetylgalactosamine]
[1]
  Cell labeling (Cy5 fluorescence on the cell surface): efficiently labeled
[2]
  Cell labeling (Cy5 fluorescence on the cell surface): efficiently labeled
[3]
  Cell labeling (Cy5 fluorescence on the cell surface): efficiently labeled

## CC(=O)OC[C@H]1OC(OC(C)=O)[C@@H](NC(=O)CN=[N+]=[N-])[C@@H](OC(C)=O)[C@@H]1OC(C)=O (stereo partly shown) [AAM, tetraacetyl-N-azidoacetylmannosamine]
[1]
  Cell labeling (Cy5 fluorescence on the cell surface): efficiently labeled
[2]
  Cell labeling (Cy5 fluorescence on the cell surface): efficiently labeled
[3]
  Cell labeling (Cy5 fluorescence on the cell surface): efficiently labeled

## [N-]=[N+]=NCC(=O)N[C@H]1C(O)O[C@H](CO)[C@H](O)[C@@H]1O (stereo partly shown) [AG, N-azidoacetylgalactosamine]
[4]
  Azide groups on cell surface membrane protein (SDS-PAGE, Cy5 fluorescence): did containing azide groups
[1]
  Cell labeling (Cy5 fluorescence on the cell surface): positively labeled
[1]; concentration increased from 25 μM to 200 μM
  Concentration dependence of labeling: increased significantly
[2]
  Cell labeling (Cy5 fluorescence on the cell surface): only HepG2 cells were positively labeled
[3]
  Cell labeling (Cy5 fluorescence on the cell surface): only HepG2 cells were positively labeled
[5]
  Toxicity to cells (MTT): not toxic
[6]
  Localization of labeling (confocal microscopy): mainly localized on cell membrane

## COc1cccc2c1C(=O)c1c(O)c3c(c(O)c1C2=O)C[C@@](O)(C(=O)CO)C[C@@H]3O[C@H]1C[C@H](NC(=O)OCc2ccc(NC(=O)C(CCCNC(N)=O)NC(=O)[C@@H](NC(=O)CCOCCOCCOCCOCCNC(=O)CCC(=O)N3Cc4ccccc4C#Cc4ccccc43)C(C)C)cc2)[C@H](O)[C@H](C)O1 (stereo partly shown) [DBCO-TEG-VC-DOX]
[7]
  MTD: > 204 mg/kg
[8]; mouse, in vivo
  Body weight change: No significant body weight loss
[9]; aqueous buffer
  solubility: < 50 µM
[9]; aqueous with cosolvent or surfactant or cyclodextrin
  solubility: ~3500 µg/mL

## COc1cc2cc(c1Cl)N(C)C(=O)C[C@H](OC(=O)[C@H](C)N(C)C(=O)CCS)[C@]1(C)O[C@H]1[C@H](C)[C@@H]1C[C@@](O)(NC(=O)O1)[C@H](OC)/C=C/C=C(\C)C2 [DM1, Mertansine]
[10]
  IC50: ~0.03 nM
[11]
  in vitro IC50 value: tens

## CC(=O)O[C@H]1C(=O)[C@@]2(C)C([C@H](OC(=O)c3ccccc3)[C@]3(O)C[C@H](OC(=O)[C@H](OC(=O)COCCOCCOCCOCCNC(=O)CCC(=O)N4Cc5ccccc5C#Cc5ccccc54)[C@@H](NC(=O)c4ccccc4)c4ccccc4)C(C)=C1C3(C)C)[C@]1(OC(C)=O)CO[C@@H]1C[C@@H]2O (stereo partly shown) [PTX-TEG-DBCO]
[7]; iv
  MTD: > 200 mg/kg

## N.N.[Cl][Pt][Cl] [cisplatin, reference compound]
[8]; CD-1 mice
  Maximum tolerable dose (MTD): about 5 mg/kg
[8]; CD-1 mice, listed as cis-platin
  Maximum tolerable dose (MTD): 5 mg/kg

## COc1cccc2c1C(=O)c1c(O)c3c(c(O)c1C2=O)C[C@@](O)(C(=O)CO)C[C@@H]3O[C@H]1C[C@H](NC(=O)OCc2ccc(NC(=O)C(CCCNC(N)=O)NC(=O)[C@@H](NC(=O)CCC(=O)NCCOCCOCCOCCOCCC(=O)NCC(C(=O)NCCC(=O)N3Cc4ccccc4C#Cc4ccccc43)S(=O)(=O)O)C(C)C)cc2)[C@H](O)[C@H](C)O1 (stereo partly shown) [sulfo-DBCO-TEG-VC-DOX]
[7]; iv
  MTD: > 120 mg/kg
[8]; CD-1 mice, one time administration in PBS, up to highest dose used
  Body weight change: No body weight decrease
[9]; aqueous buffer
  solubility: 8000 to 10000 µg/mL
